Laboratory results: patent US10508085B2, “Compounds and methods for IDO and TDO modulation, and indications therefor” (Plexxikon Inc., priority 2016, dated 2019)
Where two headings read alike, the source gives them in different places.

Assays:
[1] = target: T1, human TDO (TDO-expressing HEK293 cells) (Homo sapiens, UniProt P48775); assay: Cell based kynurenine assay, TDO-expressing HEK293 cell clones; conditions: TDO-expressing HEK293 cells, geometric mean, read-out: HEK293 TDO Kynurenine GMean IC50 (μM) (Cellular Assay)
T1 construct: expressed in transfected cells
T1 sequence (P48775 whole entry): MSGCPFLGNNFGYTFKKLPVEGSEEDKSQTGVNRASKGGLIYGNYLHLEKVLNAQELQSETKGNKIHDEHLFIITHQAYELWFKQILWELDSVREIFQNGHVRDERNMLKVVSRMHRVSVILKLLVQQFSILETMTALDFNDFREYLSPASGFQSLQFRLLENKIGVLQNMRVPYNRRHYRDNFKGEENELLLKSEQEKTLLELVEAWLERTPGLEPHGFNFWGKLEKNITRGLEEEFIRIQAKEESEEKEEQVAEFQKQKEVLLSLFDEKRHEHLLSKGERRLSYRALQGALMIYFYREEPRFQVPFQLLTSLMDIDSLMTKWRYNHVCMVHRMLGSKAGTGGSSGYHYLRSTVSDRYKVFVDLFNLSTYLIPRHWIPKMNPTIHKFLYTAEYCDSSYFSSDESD
Method in brief: (§1)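 HEK293 clones stably expressing human IDO1 or human TDO (CMV promoter), 2.5×10^4 cells/well, given serial compound dilutions for 24 h. Kynurenine measured in supernatant; inhibition relative to cell/0.2% DMSO and media-only controls. IC50 by nonlinear regression.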

[2] = target: T2, human IDO (IDO1-expressing HEK293 cells) (Homo sapiens, UniProt P14902); assay: Cell based kynurenine assay, IDO1-expressing HEK293 cell clones; conditions: IDO1-expressing HEK293 cells, geometric mean, read-out: HEK293 IDO1 Kynurenine GMean IC50 (μM) (Cellular Assay)
T2 construct: expressed in transfected cells
T2 sequence (P14902 whole entry): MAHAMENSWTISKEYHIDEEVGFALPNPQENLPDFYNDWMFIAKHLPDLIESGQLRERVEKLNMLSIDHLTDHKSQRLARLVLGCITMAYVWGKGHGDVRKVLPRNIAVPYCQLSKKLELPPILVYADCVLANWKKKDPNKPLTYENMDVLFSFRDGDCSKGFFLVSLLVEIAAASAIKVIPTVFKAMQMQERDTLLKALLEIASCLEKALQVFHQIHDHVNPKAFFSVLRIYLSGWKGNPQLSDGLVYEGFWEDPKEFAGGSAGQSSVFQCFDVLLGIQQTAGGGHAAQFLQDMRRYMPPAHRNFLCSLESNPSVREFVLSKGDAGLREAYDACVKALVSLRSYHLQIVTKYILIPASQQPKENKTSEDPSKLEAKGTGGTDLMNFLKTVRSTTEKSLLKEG
Method in brief: as §1

[3] = target: T3, Human Tryptophan 2,3-dioxygenase (TDO) (Homo sapiens, UniProt P48775); assay: Human TDO enzymatic assay (kynurenine level); type: biochemical; conditions: 1 nM TDO, 350 μM L-Trp; geometric mean; read-out: TDO GMean: IC50 (μM) (Biochemical Assay)
T3 construct: His tag (N); made in house; host or cells: E. coli
T3 sequence (P48775 whole entry): as the sequence (P48775 whole entry) above
Method in brief: (§2)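 N-His human IDO (6 nM, 10 μM L-Trp, 5 μM methylene blue, 20 min) or TDO (1 nM, 350 μM L-Trp, 0.4 μM methylene blue, 70 min) run at room temp in pH 6.5 phosphate with ascorbate, catalase, Tween 20. TCA stop, 30 min 50 °C converts N-formylkynurenine to kynurenine; IC50 by nonlinear regression.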

[4] = target: T4, Human Indoleamine 2,3-dioxygenase (IDO) (Homo sapiens, UniProt P14902); assay: Human IDO enzymatic assay (kynurenine level); type: biochemical; conditions: 6 nM IDO, 10 μM L-Trp; geometric mean; read-out: IDO1 GMean: IC50 (μM) (Biochemical Assay)
T4 construct: His tag (N); made in house; host or cells: E. coli
T4 sequence (P14902 whole entry): as the sequence (P14902 whole entry) above
Method in brief: as §2

Row | SMILES | IC50 ([1]; 24 hours incubation) | IC50 ([2]; 24 hours incubation) | IC50 [3] | IC50 [4] | IC50 ([1]; 24 hours) | IC50 ([2]; 24 hours)
1 | CC(C)(C1CCN(C(=O)NC(=O)c2ccccc2)CC1)C(O)c1cc(Cl)cc2cn[nH]c12 (stereo not shown) [Compound P-0385, N-benzoyl-4-(1-(5-chloro-1H-indazol-7-yl)-1-hydroxy-2-methylpropan-2-yl)piperidine-1-carboxamide] | 0.0001 to 10 µM | 0.0001 to 10 µM | 0.0001 to 10 µM | 0.0001 to 10 µM |  | 
2 | CC(C)(C1CCN(C(=O)NCCN2CCCS2(=O)=O)CC1)C(O)c1cc(Cl)cc2cn[nH]c12 (stereo not shown) [Compound P-0492, 4-(1-(5-chloro-1H-indazol-7-yl)-1-hydroxy-2-methylpropan-2-yl)-N-(2-(1,1-dioxidoisothiazolidin-2-yl)ethyl)piperidine-1-carboxamide] |  |  | 0.0001 to 10 µM | 0.0001 to 10 µM | 0.0001 to 10 µM | 0.0001 to 10 µM
3 | CC(C)(C1CCN(S(C)(=O)=O)CC1)C(O)c1c2c(cc3cn[nH]c13)CC2 (stereo not shown) [Compound P-0280, 1-(5,6-dihydro-1H-cyclobuta[f]indazol-7-yl)-2-methyl-2-(1-(methylsulfonyl)piperidin-4-yl)propan-1-ol] | > 10 µM | 0.0001 to 10 µM | 0.0001 to 10 µM | 0.0001 to 10 µM |  | 
4 | CC(C)(C1CCN(C(=O)Nc2ccc(Cl)cc2)CC1)[C@@H](O)c1cc(Cl)cc2cn[nH]c12 [Compound P-0433, (R)-4-(1-(5-chloro-1H-indazol-7-yl)-1-hydroxy-2-methylpropan-2-yl)-N-(4-chlorophenyl) piperidine-1-carboxamide] |  |  | 0.0001 to 10 µM | > 200 µM | 0.0001 to 10 µM | 0.0001 to 10 µM
5 | OC(c1cccc2cncn12)C12CC3CC(CC(C3)C1)C2 [Compound P-0087, ((1S,3s)-adamantan-1-yl)(imidazo[1,5-a]pyridin-5-yl)methanol] | > 10 µM | 0.0001 to 10 µM | 0.0001 to 10 µM | 0.0001 to 10 µM |  | 
6 | CC(C)(C1CC1)C(O)c1cc(Cl)cc2cn[nH]c12 (stereo not shown) [Compound P-0224, 1-(5-chloro-1H-indazol-7-yl)-2-cyclopropyl-2-methylpropan-1-ol] | 0.0001 to 10 µM | 0.0001 to 10 µM | 0.0001 to 10 µM | 0.0001 to 10 µM |  | 
7 | O[C@H](c1cc(Cl)cc2cn[nH]c12)C12CCC(CC1)CC2 [Compound P-0381, (S)-bicyclo[2.2.2] octan-1-yl(5-chloro-1H-indazol-7-yl)methanol] | 0.0001 to 10 µM | 0.0001 to 10 µM | 0.0001 to 10 µM | 0.0001 to 10 µM |  | 
8 | C[C@@H](NC(=O)N1CCC(C(C)(C)C(O)c2cc(Cl)cc3cn[nH]c23)CC1)c1ccccc1 (stereo partly drawn) [Compound P-0373, 4-(1-(5-chloro-1H-indazol-7-yl)-1-hydroxy-2-methylpropan-2-yl)-N-((R)-1-phenylethyl) piperidine-1-carboxamide] | 0.0001 to 10 µM | 0.0001 to 10 µM | 0.0001 to 10 µM | 0.0001 to 10 µM |  | 
9 | OC(c1cccc2cncn12)C1CCCC1 (stereo not shown) [Compound P-0058, cyclopentyl(imidazo[1,5-a]pyridin-5-yl)methanol] | > 10 µM | 0.0001 to 10 µM | 0.0001 to 10 µM | 0.0001 to 10 µM |  | 
10 | OC1(c2cc(Cl)cc3cn[nH]c23)[C@H]2CCC[C@@H]1CCC2 (stereo partly drawn) [Compound P-0407, (1R,5S)-9-(5-chloro-1H-indazol-7-yl)bicyclo[3.3.1] nonan-9-ol] |  |  | 0.0001 to 10 µM | 0.0001 to 10 µM | 0.0001 to 10 µM | > 10 µM
11 | CC1(C(O)c2cc(Cl)cc3cn[nH]c23)CC(F)(F)C1 (stereo not shown) [Compound P-0018, (5-chloro-1H-indazol-7-yl)(3,3-difluoro-1-methylcyclobutyl)methanol] | 0.0001 to 10 µM | 0.0001 to 10 µM | 0.0001 to 10 µM | 0.0001 to 10 µM |  | 
12 | CC(C)(C1CCN(C(=O)Nc2ccc(F)cc2)CC1)C(O)c1cc(Cl)cc2cn[nH]c12 (stereo not shown) [Compound P-0167, 4-(1-(5-chloro-1H-indazol-7-yl)-1-hydroxy-2-methylpropan-2-yl)-N-(4-fluorophenyl)piperidine-1-carboxamide] | 0.0001 to 10 µM | 0.0001 to 10 µM | 0.0001 to 10 µM | 0.0001 to 10 µM |  | 
13 | CC1(C(O)c2c(Cl)ccc3cncn23)CCCCC1 (stereo not shown) [Compound P-0088, (6-chloroimidazo[1,5-a]pyridin-5-yl)(1-methylcyclohexyl)methanol] | > 10 µM | 0.0001 to 10 µM | 0.0001 to 10 µM | 0.0001 to 10 µM |  | 
14 | CC(C)(C1CCN(C(=O)CC#N)CC1)[C@H](O)c1c(F)c(Cl)cc2cn[nH]c12 [Compound P-0505, (S)-3-(4-(1-(5-chloro-6-fluoro-1H-indazol-7-yl)-1-hydroxy-2-methylpropan-2-yl)piperidin-1-yl)-3-oxopropanenitrile] |  |  | 0.0001 to 10 µM | 0.0001 to 10 µM | 0.0001 to 10 µM | 0.0001 to 10 µM
15 | CC1(C(O)c2c(Cl)ccc3cn[nH]c23)CCCCC1 (stereo not shown) [Compound P-0207, (6-chloro-1H-indazol-7-yl)(1-methylcyclohexyl)methanol] | 0.0001 to 10 µM | 0.0001 to 10 µM | 10 to 100 µM | 0.0001 to 10 µM |  | 
16 | CC(C)(C1CCN(C(=O)CC#N)CC1)[C@@H](O)c1cc(Cl)cc2cn[nH]c12 [Compound P-0436, (R)-3-(4-(1-(5-chloro-1H-indazol-7-yl)-1-hydroxy-2-methylpropan-2-yl)piperidin-1-yl)-3-oxopropanenitrile] |  |  | 0.0001 to 10 µM | 0.0001 to 10 µM | 0.0001 to 10 µM | 0.0001 to 10 µM
17 | CC(C)(C1CCCC1)C(O)c1c(F)c(Cl)c(F)c2cn[nH]c12 (stereo not shown) [Compound P-0252, 1-(5-chloro-4,6-difluoro-1H-indazol-7-yl)-2-cyclopentyl-2-methylpropan-1-ol] | > 10 µM | 0.0001 to 10 µM | 0.0001 to 10 µM | 0.0001 to 10 µM |  | 
18 | Cc1ccc(NC(=O)N2CCC(C(C)(C)C(O)c3cc(Cl)cc4cn[nH]c34)CC2)cc1Cl (stereo not shown) [Compound P-0394, 4-(1-(5-chloro-1H-indazol-7-yl)-1-hydroxy-2-methylpropan-2-yl)-N-(3-chloro-4-methylphenyl) piperidine-1-carboxamide] | 0.0001 to 10 µM | 0.0001 to 10 µM | 0.0001 to 10 µM | 0.0001 to 10 µM |  | 
19 | COc1ccccc1NC(=O)N1CCC(C(C)(C)C(O)c2cc(Cl)cc3cn[nH]c23)CC1 (stereo not shown) [Compound P-0179, 4-(1-(5-chloro-1H-indazol-7-yl)-1-hydroxy-2-methylpropan-2-yl)-N-(2-methoxyphenyl)piperidine-1-carboxamide] | 0.0001 to 10 µM | 0.0001 to 10 µM | 0.0001 to 10 µM | 0.0001 to 10 µM |  | 
20 | O=C(Nc1ccc(F)cc1)N1CCC(C(F)(F)C(O)c2cc(Cl)cc3cn[nH]c23)CC1 (stereo not shown) [Compound P-0151, 4-(2-(5-chloro-1H-indazol-7-yl)-1,1-difluoro-2-hydroxyethyl)-N-(4-fluorophenyl)piperidine-1-carboxamide] | 0.0001 to 10 µM | 0.0001 to 10 µM | 0.0001 to 10 µM | 0.0001 to 10 µM |  | 
21 | OC(c1cccc2cncn12)C1CCC1 (stereo not shown) [Compound P-0080, cyclobutyl(imidazo[1,5-a]pyridin-5-yl)methanol] | > 10 µM | > 10 µM | 0.0001 to 10 µM | 0.0001 to 10 µM |  | 
22 | CC(C)(C1CCN(C(=O)C2CC2)CC1)[C@H](O)c1cc(Cl)cc2cn[nH]c12 [Compound P-0529, (S)-(4-(1-(5-chloro-1H-indazol-7-yl)-1-hydroxy-2-methylpropan-2-yl)piperidin-1-yl)(cyclopropyl) methanone] |  |  | 0.0001 to 10 µM | 0.0001 to 10 µM | 0.0001 to 10 µM | 0.0001 to 10 µM
